How the values were obtained:
[1] = GPCRScan assay: inhibition of GABA/PBR; design: species or system Rattus norvegicus; radioligand conc. used [nm] 0.3 – 2.0, parental cells brain tissue
[2] = target: Histamine H3 receptor (Homo sapiens) (UniProt Q9Y5N1); details: Compound concentration 10.0 uM
[3] = target: Dual specificity protein kinase CLK2 (Homo sapiens) (UniProt P49760); assay: CLK2(h) Eurofins kinase panel; details: Compound concentration 1.0 uM
[4] = target: T1, Myosin light chain kinase (Homo sapiens) (UniProt Q32MK0); assay: MLCK(h) Eurofins kinase panel; details: Compound concentration 1.0 uM
T1 sequence (whole entry): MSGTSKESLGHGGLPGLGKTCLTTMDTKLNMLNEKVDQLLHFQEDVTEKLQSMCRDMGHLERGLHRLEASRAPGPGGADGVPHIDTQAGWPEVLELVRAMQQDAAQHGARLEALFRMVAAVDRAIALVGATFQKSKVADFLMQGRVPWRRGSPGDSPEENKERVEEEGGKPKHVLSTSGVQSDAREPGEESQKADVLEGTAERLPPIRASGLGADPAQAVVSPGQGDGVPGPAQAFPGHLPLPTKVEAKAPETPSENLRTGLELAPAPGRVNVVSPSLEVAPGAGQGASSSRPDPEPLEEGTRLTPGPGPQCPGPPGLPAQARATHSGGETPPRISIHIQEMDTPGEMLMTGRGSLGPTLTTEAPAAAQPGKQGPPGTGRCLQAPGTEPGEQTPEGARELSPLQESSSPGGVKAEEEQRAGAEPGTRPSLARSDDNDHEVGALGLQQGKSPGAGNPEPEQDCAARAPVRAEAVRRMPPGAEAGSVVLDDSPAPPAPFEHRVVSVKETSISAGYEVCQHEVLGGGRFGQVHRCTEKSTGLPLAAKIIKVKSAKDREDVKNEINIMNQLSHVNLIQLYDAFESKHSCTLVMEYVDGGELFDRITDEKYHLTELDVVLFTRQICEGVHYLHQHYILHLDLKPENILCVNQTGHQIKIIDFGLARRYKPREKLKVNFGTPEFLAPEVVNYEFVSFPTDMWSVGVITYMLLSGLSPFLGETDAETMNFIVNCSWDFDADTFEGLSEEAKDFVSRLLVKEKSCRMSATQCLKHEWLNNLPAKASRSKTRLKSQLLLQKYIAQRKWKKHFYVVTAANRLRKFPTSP

[5] = target: T2, Ribosomal protein S6 kinase alpha-5 (Homo sapiens, UniProt O75582); details: Compound concentration 1.0 uM
[6] = target: Tyrosine-protein kinase Yes (Homo sapiens) (UniProt P07947); assay: Yes(h) Eurofins kinase panel; details: Compound concentration 1.0 uM
[7] = target: MAP/microtubule affinity-regulating kinase 3 (Homo sapiens) (UniProt P27448); assay: MARK3(h) Eurofins kinase panel; details: Compound concentration 1.0 uM
[8] = target: BDNF/NT-3 growth factors receptor (Homo sapiens) (UniProt Q16620); assay: TrkB(h) Eurofins kinase panel; details: Compound concentration 1.0 uM
[9] = target: Tyrosine-protein kinase Fer (Homo sapiens) (UniProt P16591); assay: Fer(h) Eurofins kinase panel; details: Compound concentration 1.0 uM
SK-N-FI = assay: SK-N-F1, control cell line Proliferation assay; type: functional, Homo sapiens; details: time 6 day
[10] = target: Glycogen synthase kinase-3 alpha (Homo sapiens) (UniProt P49840); assay: GSK3α(h) Eurofins kinase panel; details: Compound concentration 1.0 uM
[11] = target: Mitogen-activated protein kinase 14 (Homo sapiens) (UniProt Q16539); assay: SAPK2a(h) Eurofins kinase panel; details: Compound concentration 1.0 uM
[12] = target: SRSF protein kinase 2 (Homo sapiens) (UniProt P78362); assay: SRPK2(h) Eurofins kinase panel; details: Compound concentration 1.0 uM
[13] = target: Mitogen-activated protein kinase kinase kinase kinase 1 (Homo sapiens) (UniProt Q92918); assay: HPK1(h) Eurofins kinase panel; details: Compound concentration 1.0 uM
[14] = target: T3, Serine/threonine-protein kinase ULK3 (Homo sapiens) (UniProt Q6PHR2); assay: ULK3(h) Eurofins kinase panel; details: Compound concentration 1.0 uM
T3 sequence (whole entry): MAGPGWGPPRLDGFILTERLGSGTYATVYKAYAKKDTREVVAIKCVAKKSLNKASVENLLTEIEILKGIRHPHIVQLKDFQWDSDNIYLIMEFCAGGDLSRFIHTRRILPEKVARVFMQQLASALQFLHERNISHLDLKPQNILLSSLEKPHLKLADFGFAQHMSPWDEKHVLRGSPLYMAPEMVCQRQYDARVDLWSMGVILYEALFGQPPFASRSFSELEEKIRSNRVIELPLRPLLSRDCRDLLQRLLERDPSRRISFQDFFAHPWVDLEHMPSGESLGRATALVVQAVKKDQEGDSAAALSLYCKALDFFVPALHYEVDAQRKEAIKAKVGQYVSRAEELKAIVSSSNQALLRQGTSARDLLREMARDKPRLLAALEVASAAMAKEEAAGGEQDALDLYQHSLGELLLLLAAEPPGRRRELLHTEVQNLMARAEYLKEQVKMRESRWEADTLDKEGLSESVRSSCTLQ

[15] = target: Homeodomain-interacting protein kinase 1 (Homo sapiens) (UniProt Q86Z02); assay: HIPK1(h) Eurofins kinase panel; details: Compound concentration 1.0 uM
[16] = target: Serine/threonine-protein kinase MARK1 (Homo sapiens) (UniProt Q9P0L2); assay: MARK1(h) Eurofins kinase panel; details: Compound concentration 1.0 uM
[17] = target: T4, Serine/threonine-protein kinase 17A (Homo sapiens) (UniProt Q9UEE5); assay: DRAK1(h) Eurofins kinase panel; details: Compound concentration 1.0 uM
T4 sequence (whole entry): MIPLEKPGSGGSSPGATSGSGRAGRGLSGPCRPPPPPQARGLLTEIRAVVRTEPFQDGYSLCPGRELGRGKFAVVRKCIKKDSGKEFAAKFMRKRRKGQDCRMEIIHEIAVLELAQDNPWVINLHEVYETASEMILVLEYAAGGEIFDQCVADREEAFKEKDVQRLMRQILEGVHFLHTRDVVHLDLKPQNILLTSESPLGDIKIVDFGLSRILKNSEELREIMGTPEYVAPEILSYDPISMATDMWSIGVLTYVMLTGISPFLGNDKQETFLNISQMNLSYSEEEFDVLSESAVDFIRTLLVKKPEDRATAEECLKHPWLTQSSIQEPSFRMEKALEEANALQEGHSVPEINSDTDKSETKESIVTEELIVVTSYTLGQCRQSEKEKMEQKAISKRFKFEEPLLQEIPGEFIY

[18] = target: Phosphatidylinositol 5-phosphate 4-kinase type-2 alpha (Homo sapiens) (UniProt P48426); assay: PIP4K2a(h) Eurofins kinase panel; details: Compound concentration 1.0 uM
[19] = target: Casein kinase I isoform gamma-2 (Homo sapiens) (UniProt P78368); assay: CK1gamma2(h) Eurofins kinase panel; details: Compound concentration 1.0 uM
[20] = target: Platelet-derived growth factor receptor alpha (Homo sapiens) (UniProt P16234); assay: PDGFRalpha(h) Eurofins kinase panel; details: Compound concentration 1.0 uM
[21] = target: T2, Ribosomal protein S6 kinase alpha-5
[22] = target: Protein kinase C beta type (Homo sapiens) (UniProt P05771); assay: PKCbetaI (h) Eurofins kinase panel; details: Compound concentration 1.0 uM
Protein kinase C beta type (Homo sapiens), sequence (P05771 2-671 limits assumed): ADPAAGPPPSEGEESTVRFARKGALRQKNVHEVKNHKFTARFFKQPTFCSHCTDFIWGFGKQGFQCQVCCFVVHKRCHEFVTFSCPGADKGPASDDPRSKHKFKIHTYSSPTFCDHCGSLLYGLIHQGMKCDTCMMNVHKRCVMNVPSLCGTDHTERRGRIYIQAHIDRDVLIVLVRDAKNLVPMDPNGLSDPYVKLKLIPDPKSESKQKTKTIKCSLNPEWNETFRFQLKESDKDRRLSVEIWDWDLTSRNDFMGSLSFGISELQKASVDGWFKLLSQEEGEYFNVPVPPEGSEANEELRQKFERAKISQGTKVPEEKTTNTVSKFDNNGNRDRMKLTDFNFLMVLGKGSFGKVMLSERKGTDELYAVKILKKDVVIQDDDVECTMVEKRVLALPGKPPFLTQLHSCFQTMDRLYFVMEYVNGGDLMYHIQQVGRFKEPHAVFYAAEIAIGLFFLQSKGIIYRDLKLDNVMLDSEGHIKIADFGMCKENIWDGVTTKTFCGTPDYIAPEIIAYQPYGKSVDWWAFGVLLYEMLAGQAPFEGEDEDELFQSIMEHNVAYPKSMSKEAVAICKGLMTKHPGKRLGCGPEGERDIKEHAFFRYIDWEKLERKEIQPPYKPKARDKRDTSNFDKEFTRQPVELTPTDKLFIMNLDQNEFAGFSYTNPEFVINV

Homeodomain-interacting protein kinase 1 (Homo sapiens), sequence (Q86Z02 whole entry, looked up): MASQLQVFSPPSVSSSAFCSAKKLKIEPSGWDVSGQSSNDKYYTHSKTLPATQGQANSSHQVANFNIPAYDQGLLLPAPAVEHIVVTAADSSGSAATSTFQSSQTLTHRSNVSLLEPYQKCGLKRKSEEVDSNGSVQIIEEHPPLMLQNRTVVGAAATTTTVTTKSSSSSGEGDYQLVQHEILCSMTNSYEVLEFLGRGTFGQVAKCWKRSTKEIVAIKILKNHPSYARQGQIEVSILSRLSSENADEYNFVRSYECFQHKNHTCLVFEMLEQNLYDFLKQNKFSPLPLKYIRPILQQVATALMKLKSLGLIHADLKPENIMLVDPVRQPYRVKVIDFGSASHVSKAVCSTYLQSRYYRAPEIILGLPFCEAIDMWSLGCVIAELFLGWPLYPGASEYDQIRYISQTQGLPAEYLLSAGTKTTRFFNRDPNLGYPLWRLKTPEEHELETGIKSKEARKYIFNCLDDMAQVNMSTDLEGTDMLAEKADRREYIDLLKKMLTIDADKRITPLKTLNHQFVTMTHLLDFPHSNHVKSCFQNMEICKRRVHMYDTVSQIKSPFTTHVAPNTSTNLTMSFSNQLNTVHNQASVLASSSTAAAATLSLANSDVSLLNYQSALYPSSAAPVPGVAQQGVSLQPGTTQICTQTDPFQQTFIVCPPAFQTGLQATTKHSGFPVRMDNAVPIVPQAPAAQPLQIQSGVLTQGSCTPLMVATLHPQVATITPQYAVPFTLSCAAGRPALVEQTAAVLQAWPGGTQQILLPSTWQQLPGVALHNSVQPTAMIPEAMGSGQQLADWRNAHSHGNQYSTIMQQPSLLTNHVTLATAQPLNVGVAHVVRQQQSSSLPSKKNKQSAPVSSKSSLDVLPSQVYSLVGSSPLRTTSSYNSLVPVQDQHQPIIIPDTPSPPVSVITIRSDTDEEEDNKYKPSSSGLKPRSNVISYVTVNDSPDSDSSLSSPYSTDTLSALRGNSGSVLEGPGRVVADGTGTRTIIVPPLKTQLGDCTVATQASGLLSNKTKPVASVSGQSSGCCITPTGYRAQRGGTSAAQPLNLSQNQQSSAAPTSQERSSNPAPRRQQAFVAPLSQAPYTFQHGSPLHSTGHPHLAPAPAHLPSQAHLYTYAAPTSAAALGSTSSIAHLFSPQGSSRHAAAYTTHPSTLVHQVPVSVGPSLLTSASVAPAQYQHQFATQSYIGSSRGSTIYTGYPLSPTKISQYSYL
Casein kinase I isoform gamma-2 (Homo sapiens), sequence (P78368 whole entry, looked up, canonical isoform): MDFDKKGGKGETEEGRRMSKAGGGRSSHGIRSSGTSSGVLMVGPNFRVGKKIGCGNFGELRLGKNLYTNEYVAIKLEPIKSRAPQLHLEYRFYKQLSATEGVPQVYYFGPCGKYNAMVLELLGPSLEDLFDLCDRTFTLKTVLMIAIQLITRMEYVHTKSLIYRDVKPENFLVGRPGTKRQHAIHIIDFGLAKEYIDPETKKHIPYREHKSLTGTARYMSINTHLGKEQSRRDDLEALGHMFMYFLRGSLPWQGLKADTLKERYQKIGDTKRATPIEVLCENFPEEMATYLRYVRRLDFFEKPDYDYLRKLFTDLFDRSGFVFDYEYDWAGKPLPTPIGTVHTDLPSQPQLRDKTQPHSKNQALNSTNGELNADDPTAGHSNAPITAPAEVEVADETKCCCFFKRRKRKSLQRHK
Glycogen synthase kinase-3 alpha (Homo sapiens), sequence (P49840 2-483 limits assumed): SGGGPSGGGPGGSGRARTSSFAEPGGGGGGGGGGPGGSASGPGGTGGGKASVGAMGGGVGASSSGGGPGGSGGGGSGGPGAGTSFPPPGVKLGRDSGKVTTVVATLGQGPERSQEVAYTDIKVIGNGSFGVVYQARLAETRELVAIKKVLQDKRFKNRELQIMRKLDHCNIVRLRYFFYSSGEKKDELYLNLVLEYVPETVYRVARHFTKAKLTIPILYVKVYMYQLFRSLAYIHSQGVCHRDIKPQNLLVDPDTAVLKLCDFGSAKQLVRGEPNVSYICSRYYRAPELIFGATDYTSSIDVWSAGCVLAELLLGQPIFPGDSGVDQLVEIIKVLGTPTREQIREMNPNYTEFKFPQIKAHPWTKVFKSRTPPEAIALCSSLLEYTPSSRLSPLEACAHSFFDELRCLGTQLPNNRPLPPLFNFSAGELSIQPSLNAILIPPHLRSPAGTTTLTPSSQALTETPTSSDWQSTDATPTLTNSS
MAP/microtubule affinity-regulating kinase 3 (Homo sapiens), sequence (P27448 whole entry, looked up): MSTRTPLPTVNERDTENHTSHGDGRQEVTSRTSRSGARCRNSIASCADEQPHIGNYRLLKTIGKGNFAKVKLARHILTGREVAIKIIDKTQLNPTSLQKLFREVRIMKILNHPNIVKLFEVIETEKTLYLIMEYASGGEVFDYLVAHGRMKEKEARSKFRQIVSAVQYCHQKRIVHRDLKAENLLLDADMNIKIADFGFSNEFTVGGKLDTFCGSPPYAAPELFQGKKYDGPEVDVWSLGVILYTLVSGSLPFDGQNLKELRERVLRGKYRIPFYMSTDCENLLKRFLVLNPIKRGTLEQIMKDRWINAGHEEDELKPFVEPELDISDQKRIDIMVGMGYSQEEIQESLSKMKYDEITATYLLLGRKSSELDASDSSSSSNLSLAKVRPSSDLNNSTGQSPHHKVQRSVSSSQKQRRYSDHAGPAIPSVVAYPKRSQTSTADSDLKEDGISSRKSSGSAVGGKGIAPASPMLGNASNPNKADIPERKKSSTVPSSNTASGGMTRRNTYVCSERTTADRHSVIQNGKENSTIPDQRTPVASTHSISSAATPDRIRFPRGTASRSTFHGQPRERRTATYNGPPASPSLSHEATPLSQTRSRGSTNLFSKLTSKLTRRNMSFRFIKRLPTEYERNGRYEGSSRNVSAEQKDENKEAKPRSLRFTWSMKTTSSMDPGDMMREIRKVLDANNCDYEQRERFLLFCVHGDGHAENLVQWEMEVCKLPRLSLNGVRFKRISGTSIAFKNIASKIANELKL
Histamine H3 receptor (Homo sapiens), sequence (Q9Y5N1 whole entry): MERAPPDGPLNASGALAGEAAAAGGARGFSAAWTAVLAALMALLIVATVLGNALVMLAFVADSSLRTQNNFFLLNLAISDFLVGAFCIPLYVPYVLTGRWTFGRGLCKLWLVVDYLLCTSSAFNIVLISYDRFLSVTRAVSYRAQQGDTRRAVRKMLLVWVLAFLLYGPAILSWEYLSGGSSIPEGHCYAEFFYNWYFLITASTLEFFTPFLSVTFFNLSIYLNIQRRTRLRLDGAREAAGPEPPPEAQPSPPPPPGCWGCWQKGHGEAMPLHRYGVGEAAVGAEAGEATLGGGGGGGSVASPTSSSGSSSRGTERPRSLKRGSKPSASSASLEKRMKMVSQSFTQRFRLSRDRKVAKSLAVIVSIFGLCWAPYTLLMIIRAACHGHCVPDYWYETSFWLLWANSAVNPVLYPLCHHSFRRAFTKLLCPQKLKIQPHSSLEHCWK
Platelet-derived growth factor receptor alpha (Homo sapiens), sequence (P16234 whole entry): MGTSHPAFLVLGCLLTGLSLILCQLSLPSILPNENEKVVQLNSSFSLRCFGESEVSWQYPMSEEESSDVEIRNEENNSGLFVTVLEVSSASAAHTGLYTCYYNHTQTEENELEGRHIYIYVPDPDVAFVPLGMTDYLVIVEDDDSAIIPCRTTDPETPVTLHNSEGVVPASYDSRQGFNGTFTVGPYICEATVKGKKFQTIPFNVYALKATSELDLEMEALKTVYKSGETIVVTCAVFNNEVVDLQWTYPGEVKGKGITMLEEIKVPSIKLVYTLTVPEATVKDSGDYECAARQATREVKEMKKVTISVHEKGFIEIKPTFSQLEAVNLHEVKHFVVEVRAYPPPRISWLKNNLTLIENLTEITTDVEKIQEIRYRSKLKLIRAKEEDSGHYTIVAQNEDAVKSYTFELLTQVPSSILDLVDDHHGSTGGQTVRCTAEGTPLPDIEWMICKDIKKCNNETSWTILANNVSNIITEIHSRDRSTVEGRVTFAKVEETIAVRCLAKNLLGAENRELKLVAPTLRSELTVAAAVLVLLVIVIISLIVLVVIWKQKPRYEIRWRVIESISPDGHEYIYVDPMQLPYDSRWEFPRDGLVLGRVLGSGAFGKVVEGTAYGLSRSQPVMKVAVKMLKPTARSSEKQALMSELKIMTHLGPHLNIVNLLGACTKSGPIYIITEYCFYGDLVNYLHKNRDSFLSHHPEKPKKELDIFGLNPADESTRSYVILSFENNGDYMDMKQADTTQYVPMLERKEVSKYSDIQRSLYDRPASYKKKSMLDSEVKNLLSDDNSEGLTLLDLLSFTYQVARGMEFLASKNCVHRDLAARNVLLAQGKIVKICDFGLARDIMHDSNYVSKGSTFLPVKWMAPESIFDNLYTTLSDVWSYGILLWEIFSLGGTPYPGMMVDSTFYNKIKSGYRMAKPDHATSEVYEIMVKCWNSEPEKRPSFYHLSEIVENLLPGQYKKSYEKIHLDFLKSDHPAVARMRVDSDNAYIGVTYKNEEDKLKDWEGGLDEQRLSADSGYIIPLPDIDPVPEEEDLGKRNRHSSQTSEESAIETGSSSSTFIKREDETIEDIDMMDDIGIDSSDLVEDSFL

Work on `CC1=C(C#N)C(c2ccc3c(c2)c(NC(=O)c2ccccc2C)nn3C)C(C#N)=C(C)N1` [BAY-974] yielded a Ki [1] of 21 nM, a pKi [1] of 7.69 and an inhibition [2] of 1.89%.
Work on `CCc1ccccc1C(=O)Nc1n[nH]c2c(C)c(F)c(C3C(C#N)=C(C)N(C)C(C)=C3C#N)cc12` [BAY-3827] yielded a % residual kinase activity [3] of 93%, a % residual kinase activity [4] of 32% and a % residual kinase activity [5] of 10%. The % residual kinase activity [6] was 90%, the % residual kinase activity [7] was 70% and the % residual kinase activity [8] was 103%. For the same compound, the % residual kinase activity [9] was 100%, the “Cell Proliferation IC50” value (SK-N-FI) was 21200 nM and the % residual kinase activity [10] was 83%. For the same compound, the % residual kinase activity [11] was 101%, the % residual kinase activity [12] was 83% and the % residual kinase activity [13] was 57%. For the same compound, the % residual kinase activity [14] was 59%, the % residual kinase activity [15] was 100% and the % residual kinase activity [16] was 66%. For the same compound, the % residual kinase activity [17] was 119%, the % residual kinase activity [18] was 105% and the % residual kinase activity [19] was 98%. It also gave a % residual kinase activity [20] of 102%, an IC50 [21] of 43 nM and a % residual kinase activity [22] of 55%.
